# Values of other authors, collected in PubChem BioAssay AID493017 (Abbott Labs, 1994).
# Target: Platelet-derived growth factor receptor alpha (Homo sapiens) (UniProt P16234)
# Assay: PubChem AID 493017
# Details: WOMBAT literature affinities, multiple human targets; PDGFR; gene PDGFRA; NCBI gene 5156
# Platelet-derived growth factor receptor alpha (Homo sapiens), sequence (P16234 whole entry, looked up): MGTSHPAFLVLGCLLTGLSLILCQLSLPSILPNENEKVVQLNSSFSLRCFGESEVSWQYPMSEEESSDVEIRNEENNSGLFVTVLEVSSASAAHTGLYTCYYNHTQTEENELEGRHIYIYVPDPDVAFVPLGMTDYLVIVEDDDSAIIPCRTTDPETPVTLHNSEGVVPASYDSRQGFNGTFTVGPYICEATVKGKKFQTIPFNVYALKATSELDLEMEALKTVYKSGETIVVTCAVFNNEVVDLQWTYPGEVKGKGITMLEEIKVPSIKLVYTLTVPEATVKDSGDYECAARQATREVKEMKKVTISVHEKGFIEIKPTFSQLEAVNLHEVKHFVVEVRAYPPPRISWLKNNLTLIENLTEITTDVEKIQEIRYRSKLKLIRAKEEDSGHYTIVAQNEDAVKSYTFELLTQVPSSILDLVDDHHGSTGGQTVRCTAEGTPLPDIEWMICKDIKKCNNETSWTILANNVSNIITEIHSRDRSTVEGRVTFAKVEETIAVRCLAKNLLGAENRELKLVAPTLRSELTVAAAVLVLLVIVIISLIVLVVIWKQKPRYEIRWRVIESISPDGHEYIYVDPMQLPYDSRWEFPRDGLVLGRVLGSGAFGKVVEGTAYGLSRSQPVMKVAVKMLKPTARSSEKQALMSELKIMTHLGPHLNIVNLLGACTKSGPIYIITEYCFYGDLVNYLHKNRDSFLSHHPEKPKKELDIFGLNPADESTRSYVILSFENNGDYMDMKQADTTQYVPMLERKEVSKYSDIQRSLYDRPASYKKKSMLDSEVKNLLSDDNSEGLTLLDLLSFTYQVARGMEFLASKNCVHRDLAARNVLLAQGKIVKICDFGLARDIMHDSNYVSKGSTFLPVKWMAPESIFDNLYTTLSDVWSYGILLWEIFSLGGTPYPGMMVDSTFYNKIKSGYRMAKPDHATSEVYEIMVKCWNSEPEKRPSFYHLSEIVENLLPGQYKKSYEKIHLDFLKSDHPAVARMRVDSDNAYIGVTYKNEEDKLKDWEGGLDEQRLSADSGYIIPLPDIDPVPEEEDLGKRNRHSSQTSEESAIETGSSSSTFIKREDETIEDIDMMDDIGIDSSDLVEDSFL
row,Structure (SMILES),IC50
1,COc1ccc(-c2cnc3cc(OC)c(OC)cc3c2)cc1,0.00387 µM
2,COc1cc2cccnc2cc1OC,24.5 µM
3,COc1cc2cc(-c3ccc(O)cc3)cnc2cc1OC,0.0245 µM
4,COc1cccc(-c2cnc3cc(OC)c(OC)cc3c2)c1,1.41 µM
5,COc1cc2cc(C#Cc3ccccc3)cnc2cc1OC,0.0316 µM
6,c1ccc2ncc(-c3c[nH]c4ccccc34)cc2c1,4 µM
7,COc1cc2cc(-c3ccc(Cl)c(Cl)c3)cnc2cc1OC,2.65 µM
8,COc1cc2cc(C#CC3CCCCC3)cnc2cc1OC,0.548 µM
9,COc1cc2cc(-c3ccc(=O)[nH]c3)cnc2cc1OC,0.0212 µM
10,COc1ccc(-c2cnc3cc(OC)c(OC)cc3c2)cc1C,0.2 µM
11,COc1cc2cc(OCc3ccccc3)cnc2cc1OC,0.0529 µM
12,Fc1cc2cc(-c3ccsc3)cnc2cc1F,2.83 µM
13,COc1ccc(C=Cc2cnc3cc(OC)c(OC)cc3c2)cc1,0.0548 µM
14,COc1cc2cc(-c3c[nH]c4ccccc34)cnc2cc1OC,0.245 µM
15,COc1cc2cc(CCC3CCCCC3)cnc2cc1OC,0.387 µM
16,COc1cc2cc(NCc3ccccc3)cnc2cc1OC,0.04 µM
17,COc1cc2cc(C3CCCC3)cnc2cc1OC,0.224 µM
18,COc1ccc(CCc2cnc3cc(OC)c(OC)cc3c2)cc1,0.4 µM
19,COc1cc2cc(-c3ccccc3)cnc2cc1OC,0.102 µM
20,COc1ccc(-c2cnc3cc(OC)c(OC)cc3c2)s1,0.158 µM
21,COc1cc2cc(-c3ccc(C(=O)O)cc3)cnc2cc1OC,1.87 µM
22,Oc1cc2cc(-c3cccnc3)cnc2cc1O,7.75 µM
23,COc1cc2cc(C3=CCCC3)cnc2cc1OC,0.0283 µM
